Our source for the EC50, dTas2r1 and dTas2r41 values is article PMC9710775, “Bitter taste sensitivity in domestic dogs (Canis familiaris) and its relevance to bitter deterrents of ingestion” (PLOS ONE, 2022).

Assay in all cases: calcium imaging (Cal520-AM), HEK293T cells
What all share (assay type): cell-based

In one assay the target is T1, dTas2r4 (Canis lupus, UniProt A0A8I3SCV7).
T1 construct: gene TAS2R4; HEK293T-PEAKrapid cells with Galpha16i/o44
T1 sequence (A0A8I3SCV7 1-299): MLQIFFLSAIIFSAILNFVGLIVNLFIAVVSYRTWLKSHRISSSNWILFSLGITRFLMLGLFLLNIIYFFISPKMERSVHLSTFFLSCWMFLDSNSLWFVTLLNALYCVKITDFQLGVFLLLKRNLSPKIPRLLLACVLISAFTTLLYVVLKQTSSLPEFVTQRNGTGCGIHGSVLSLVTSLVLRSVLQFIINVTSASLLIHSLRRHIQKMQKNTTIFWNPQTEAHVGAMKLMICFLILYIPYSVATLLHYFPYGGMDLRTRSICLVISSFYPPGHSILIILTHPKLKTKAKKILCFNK
An excerpt:
calcium imaging (Cal520-AM), HEK293T cells on dTas2r4

The next assay deals with T2, dTas2r1 (Canis lupus, UniProt Q2ABE0).
T2 construct: gene TAS2R1; HEK293T-PEAKrapid cells with Galpha16i/o44; gene on dog chromosome 34
T2 sequence (Q2ABE0 1-297): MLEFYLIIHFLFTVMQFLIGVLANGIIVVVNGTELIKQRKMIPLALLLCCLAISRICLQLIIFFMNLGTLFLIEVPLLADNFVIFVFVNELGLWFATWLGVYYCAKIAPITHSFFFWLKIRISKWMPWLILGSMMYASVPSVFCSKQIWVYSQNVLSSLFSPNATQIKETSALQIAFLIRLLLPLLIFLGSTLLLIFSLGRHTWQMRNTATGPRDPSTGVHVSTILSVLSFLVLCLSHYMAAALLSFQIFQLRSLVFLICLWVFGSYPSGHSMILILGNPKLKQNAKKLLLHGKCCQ
The settings on record: agonist; Galpha16i/o44 cells; lowest concentration differing from mock cells; EC50 not determined. An excerpt: calcium imaging (Cal520-AM), HEK293T cells on dTas2r1

The next assay deals with T3, dTas2r10 (Canis lupus, UniProt Q2ABD4).
T3 construct: gene TAS2R10; HEK293T-PEAKrapid cells with Galpha16i/o44
T3 sequence (Q2ABD4 1-322): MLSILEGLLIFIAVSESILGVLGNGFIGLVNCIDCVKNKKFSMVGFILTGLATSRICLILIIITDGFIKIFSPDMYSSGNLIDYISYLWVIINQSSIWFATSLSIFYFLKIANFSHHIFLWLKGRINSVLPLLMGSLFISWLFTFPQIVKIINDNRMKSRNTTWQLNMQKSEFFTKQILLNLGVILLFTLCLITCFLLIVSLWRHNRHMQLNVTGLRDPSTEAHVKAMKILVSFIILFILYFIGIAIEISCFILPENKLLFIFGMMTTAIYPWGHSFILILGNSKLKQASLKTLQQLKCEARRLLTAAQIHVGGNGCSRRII
An excerpt:
calcium imaging (Cal520-AM), HEK293T cells on dTas2r10

Another assay concerns the target T4, dTas2r41 (Canis lupus, UniProt A0A8I3NKU5).
T4 construct: gene TAS2R41; HEK293T-PEAKrapid cells with Galpha16i/o44
T4 sequence (A0A8I3NKU5 1-308): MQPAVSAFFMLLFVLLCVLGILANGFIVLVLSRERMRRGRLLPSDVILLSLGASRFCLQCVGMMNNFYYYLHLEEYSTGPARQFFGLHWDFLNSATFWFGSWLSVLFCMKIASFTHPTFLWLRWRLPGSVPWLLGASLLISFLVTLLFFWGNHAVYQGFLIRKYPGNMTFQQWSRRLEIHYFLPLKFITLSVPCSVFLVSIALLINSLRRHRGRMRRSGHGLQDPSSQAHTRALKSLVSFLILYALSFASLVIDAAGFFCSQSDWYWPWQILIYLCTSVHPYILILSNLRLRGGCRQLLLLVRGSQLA
The settings on record: agonist; Galpha16i/o44 cells; lowest concentration differing from mock cells; EC50 not determined. An excerpt:
calcium imaging (Cal520-AM), HEK293T cells on dTas2r41

In the next assay the target is T5, dTas2r5 (Canis lupus, UniProt Q2ABD6).
T5 construct: gene TAS2R5; HEK293T-PEAKrapid cells with Galpha16i/o44
T5 sequence (Q2ABD6 1-295): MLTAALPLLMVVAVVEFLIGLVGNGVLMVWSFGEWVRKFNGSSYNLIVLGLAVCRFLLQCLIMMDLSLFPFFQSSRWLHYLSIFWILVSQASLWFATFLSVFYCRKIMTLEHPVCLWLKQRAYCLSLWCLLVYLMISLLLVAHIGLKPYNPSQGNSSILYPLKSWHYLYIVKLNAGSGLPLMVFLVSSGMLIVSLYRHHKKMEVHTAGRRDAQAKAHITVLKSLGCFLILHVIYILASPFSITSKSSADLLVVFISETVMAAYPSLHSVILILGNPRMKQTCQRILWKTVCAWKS
The text has this:
calcium imaging (Cal520-AM), HEK293T cells on dTas2r5

Read-outs that look alike come from different tables or passages of the source.

For `O=C1NS(=O)(=O)c2cc([N+](=O)[O-])ccc21` [6-Nitrosaccharin], on dTas2r4 (read-out: dTas2r4), the EC50 turned out to be 1.12 mM. Besides, the dTas2r1 on dTas2r1 worked out at 0.041 mM.

Regarding `COc1cccc2c1cc([N+](=O)[O-])c1c(C(=O)O)cc3c(c12)OCO3` [Aristolochic acid I], the EC50 at dTas2r4 amounted to 0.19 mM.

In the case of `CC(=O)OC(C)(C)/C=C/C(=O)[C@](C)(O)[C@H]1[C@H](O)C[C@@]2(C)[C@@H]3CC=C4[C@@H](C[C@H](O)C(=O)C4(C)C)[C@]3(C)C(=O)C[C@]12C` [Cucurbitacin B], the EC50 at dTas2r10 came to 0.0024 mM.

As for `CC[N+](CC)(CC(=O)Nc1c(C)cccc1C)Cc1ccccc1` [Denatonium benzoate], the EC50 on dTas2r4 (read-out: dTas2r4) was found to be 4.35 mM.

As to `O=c1cc(-c2ccccc2)oc2ccccc12` [Flavone], on dTas2r1, the dTas2r1 is given as 0.00082 mM.

Take `CC[N+](C)(CC)CCOC(=O)C(O)(c1ccccc1)C1CCCCC1` (stereo not drawn) [Oxyphenonium bromide]: the dTas2r41 on dTas2r41 is 11.11 mM. Moreover, on dTas2r4 (read-out: dTas2r4), the EC50 worked out at 4.76 mM.

For the compound `OC[C@H]1O[C@H](O[C@]2(CCl)O[C@H](CCl)[C@@H](O)[C@@H]2O)[C@H](O)[C@@H](O)[C@H]1Cl` [Sucralose], the EC50 on dTas2r5 was found to be 42.9 mM.
